In paper PMC10600239, “Selective MCL-1 inhibitor ABBV-467 is efficacious in tumor models but is associated with cardiac troponin increases in patients” (Communications Medicine, 2023):
“And” between values parts separate entries of the source, which are not always exact repeats. Equal entries are not always repeated.

Tested on: AMO-1 xenografts
Test: AMO-1 xenograft efficacy (tumor volume, body weight)
Format: in vivo, mouse
Settings: for % Weight Change (individual weights) / Weight, g (individual weights): individual animal, Day 21; for Xenograft AMO-1 (DSMZ) (mm³) Day 16 / Xenograft AMO-1 (DSMZ) (mm³) Day 19: tumor volume
Protocol: All animal studies were conducted in accordance with the guidelines approved by the Institutional Animal Care and Use Committees of AbbVie. The research protocol was approved by In Vivo Pharmacology at AbbVie prior to study initiation but was not publicly registered or disclosed. Female C.B-17 SCID-beige mice (AMO-1, OPM-2, NCI-H929, and OCI-AML2 xenografts) and female NSG mice (MV4-11-Red.Fluc systemic) were purchased from Charles River Laboratories (Wilmington, MA). Animals were housed in a light cycle-controlled room with HEPA filtration at 22 °C. Animals had nesting and climbing cage topper as the primary environmental enrichment. Animals were inoculated subcutaneously in the right flank with 5 × 10^6 (AMO-1, OPM-2, NCI-H929, and OCI-AML2) or intravenous (IV) with 5 × 10^6 (MV4-11-Red.Fluc). The inoculation volume (0.2 mL) comprised a 50:50 mixture of cells in growth media and Matrigel (BD Biosciences) for subcutaneous injections and 100% phosphate-buffered saline for IV administration. All cell lines used in this publication were authenticated using IDEXX for STR profiling as well as their IMPACT and human IMPACT panels for pathogen screening. Electronic calipers were used to measure the length and width of each tumor 2 to 3 times per week. Tumor volume was estimated by applying the following equation: volume = length × width^2/2. All groups remained blinded during measurements and dosing; only veterinary staff were aware of group identity. When tumors reached approximately 200 mm^3, mice were randomized by match and distributed into treatment and control groups. All xenograft trials were conducted using 5 to 10 mice per group, and all mice were ear tagged and monitored individually throughout the studies. […] Tumor burden in the systemic MV4-11-Red.Fluc experiment was measured using an IVIS® spectrum from PerkinElmer by taking the total photon flux of the entire dorsal side of an individual mouse. […] A background control mouse that was tumor naive but received D-Luciferin was placed in the upper left corner of each image. The total flux from this animal was subtracted from the total flux of each animal present in the image.
For in vivo studies, maximal tumor growth inhibition (TGI) was calculated as the greatest treatment response using the following equation: Maximal TGI = (1 − mean tumor volume of the treated group/mean tumor volume of the vehicle control group) × 100. The tumor growth delay (TGD) percentage was determined as the percentage increase of the median time period for the treatment group to reach an arbitrary tumor volume of 1000 mm^3 relative to the vehicle control group. […] A power analysis was conducted using historical data to determine the number of animals required to yield significance of 0.05 at a 30% difference. […] Data from experiments in vivo were analyzed using the student’s t-test for TGI values and the Mann–Whitney U test for TGD using Excel and GraphPad Prism. Fisher’s exact test was used to probe significance of differences in response frequency.

[1] = 25 mg/kg, Q7Dx2, IV, SCID-beige female mice, Day 91
[2] = Day 14, 6.25 mg/kg Q7Dx2 IV, control Group 01
[3] = Day 14, 25 mg/kg Q7Dx2 IV, control Group 01
[4] = Day 80, 25 mg/kg Q7Dx2 IV, SCID-beige female mice
[5] = Day 82, 25 mg/kg Q7Dx2 IV, SCID-beige female mice
[6] = SCID-beige female mice, 25 mg/kg Q7Dx2 IV, Day 47, remaining animals
[7] = SCID-beige female mice, 25 mg/kg Q7Dx2 IV, Day 75
[8] = SCID-beige female mice, 25 mg/kg Q7Dx2 IV, Day 88, surviving animals
[9] = control Group 01, 6.25 mg/kg Q7Dx2 IV
[10] = control Group 01, 25 mg/kg Q7Dx2 IV

## Cc1c(Cl)c2c(Cl)c(C)c1-c1c(-c3ccc(F)cc3)sc3ncnc(c13)O[C@@H](C(=O)O)Cc1cc(ccc1OCc1ccnc(-c3ccc(OC[C@H]4COCCO4)cc3)n1)OC[C@@H](CN1CCN(C)CC1)O2 [Compound A-1747745.0]
[1]
  Xenograft AMO-1 (DSMZ) tumor volume Day 91, Mean: 22.37 mm³
  Xenograft AMO-1 (DSMZ) tumor volume Day 91, Median: 22.37 mm³
  Xenograft AMO-1 (DSMZ) tumor volume Day 91, individual animal: 22 mm³
AMO-1 (DSMZ) xenograft, SCID-beige mouse, 6.25 mg/kg IV Q7Dx2
  % Mortality: 100.00%
AMO-1 (DSMZ) xenograft, SCID-beige mouse, 25 mg/kg IV Q7Dx2
  % Mortality: 100.00%
AMO-1 (DSMZ) xenograft, SCID-beige mouse, 25 mg/kg IV Q7Dx2, day 21
  % BW Loss: -2% (day 21)
[2]
  Body Weight Day 14, % T/C (mean): 96.25%
  Body Weight Day 14, % T/C (median): 96.25%
[3]
  Body Weight Day 14, % T/C (mean): 98.12%
  Body Weight Day 14, % T/C (median): 98.12%
[4]
  Xenograft AMO-1 (DSMZ) tumor volume, Mean: 10.80 mm³
  Xenograft AMO-1 (DSMZ) tumor volume, Median: 10.80 mm³
  Xenograft AMO-1 (DSMZ) tumor volume, individual animal: 11 mm³
[5]
  Xenograft AMO-1 (DSMZ) tumor volume, Mean: 12.07 mm³
  Xenograft AMO-1 (DSMZ) tumor volume, Median: 12.07 mm³
  Xenograft AMO-1 (DSMZ) tumor volume, individual animal: 12 mm³
SCID-beige female mice, 25 mg/kg Q7Dx2 IV, Day 47
  Xenograft AMO-1 (DSMZ) tumor volume Day 47 (individual animal): 8 mm³
[6]
  Xenograft AMO-1 (DSMZ) tumor volume Day 47, Mean: 8.10 mm³
  Xenograft AMO-1 (DSMZ) tumor volume Day 47, Median: 8.10 mm³
[7]
  Xenograft AMO-1 (DSMZ) Day 75 tumor volume, Mean: 13.50 mm³
  Xenograft AMO-1 (DSMZ) Day 75 tumor volume, Median: 13.50 mm³
  Xenograft AMO-1 (DSMZ) Day 75 tumor volume, individual animals: 14 mm³
SCID-beige female mice, 25 mg/kg Q7Dx2 IV, Day 88
  Xenograft AMO-1 (DSMZ) Day 88 (tumor volume, individual animals): 15 mm³
[8]
  Xenograft AMO-1 (DSMZ) Day 88, Mean: 14.75 mm³
  Xenograft AMO-1 (DSMZ) Day 88, Median: 14.75 mm³
Group mean tumor volume of remaining animals, SCID-beige female mice, 25 mg/kg Q7Dx2 IV, Day 84
  Xenograft AMO-1 (DSMZ) (mm³) Day 84, Mean: 5.32 mm³
Group mean, Day 16, 3.13 mg/kg QDx1 IV
  Xenograft AMO-1 (DSMZ) (mm³) Day 16 Mean: 205.11 mm³
Group mean, Day 16, 6.25 mg/kg QDx1 IV
  Xenograft AMO-1 (DSMZ) (mm³) Day 16 Mean: 172.06 mm³
Group mean, Day 19, 3.13 mg/kg QDx1 IV
  Xenograft AMO-1 (DSMZ) (mm³) Day 19 Mean: 192.25 mm³
Group mean, Day 19, 6.25 mg/kg QDx1 IV
  Xenograft AMO-1 (DSMZ) (mm³) Day 19 Mean: 133.62 mm³
Group mean, 25 mg/kg Q7Dx2 IV, SCID-beige mice, Day 70
  Xenograft AMO-1 (DSMZ) (mm³) Day 70, Mean: 24.72 mm³
Group median tumor volume of remaining animals, SCID-beige female mice, 25 mg/kg Q7Dx2 IV, Day 84
  Xenograft AMO-1 (DSMZ) (mm³) Day 84, Median: 5.32 mm³
Group median, Day 16, 3.13 mg/kg QDx1 IV
  Xenograft AMO-1 (DSMZ) (mm³) Day 16 Median: 207.59 mm³
Group median, Day 16, 6.25 mg/kg QDx1 IV
  Xenograft AMO-1 (DSMZ) (mm³) Day 16 Median: 173.79 mm³
Group median, Day 19, 3.13 mg/kg QDx1 IV
  Xenograft AMO-1 (DSMZ) (mm³) Day 19 Median: 202.67 mm³
Group median, Day 19, 6.25 mg/kg QDx1 IV
  Xenograft AMO-1 (DSMZ) (mm³) Day 19 Median: 134.81 mm³
Group median, 25 mg/kg Q7Dx2 IV, SCID-beige mice, Day 70
  Xenograft AMO-1 (DSMZ) (mm³) Day 70, Median: 24.72 mm³
Individual animal tumor volume, SCID-beige female mice, 25 mg/kg Q7Dx2 IV, Day 84
  Xenograft AMO-1 (DSMZ) (mm³) Day 84: 5.32 mm³
6.25 mg/kg IV Q7Dx2
  % Weight Change (individual weights): 0.65%
  Weight, g (individual weights): 22.14 g
25 mg/kg IV Q7Dx2
  % Weight Change (individual weights): -1.91%
  Weight, g (individual weights): 22.00 g
Individual animals, Day 14, 3.13 mg/kg QDx1 IV
  Body Weight (g) Day 14: 22 g
Individual animals, Day 14, 6.25 mg/kg QDx1 IV
  Body Weight (g) Day 14: 22 g
Individual animals, 25 mg/kg Q7Dx2 IV, SCID-beige mice, Day 70
  Xenograft AMO-1 (DSMZ) (mm³) Day 70: 25 mm³
Day 14, 3.13 mg/kg QDx1 IV
  Body Weight Day 14, % T/C (mean): 102.98%
  Body Weight Day 14, % T/C (median): 102.98%
Day 14, 6.25 mg/kg QDx1 IV
  Body Weight Day 14, % T/C (mean): 102.98%
  Body Weight Day 14, % T/C (median): 102.98%
Day 16, 3.13 mg/kg QDx1 IV
  Xenograft AMO-1 Day 16 % T/C (mean): 61.23%
  Xenograft AMO-1 Day 16 % T/C (median): 62.33%
Day 16, 6.25 mg/kg QDx1 IV
  Xenograft AMO-1 Day 16 % T/C (mean): 51.36%
  Xenograft AMO-1 Day 16 % T/C (median): 52.18%
Day 19, 3.13 mg/kg QDx1 IV
  Xenograft AMO-1 Day 19 % T/C (mean): 44.28%
  Xenograft AMO-1 Day 19 % T/C (median): 51.55%
Day 19, 6.25 mg/kg QDx1 IV
  Xenograft AMO-1 Day 19 % T/C (mean): 30.78%
  Xenograft AMO-1 Day 19 % T/C (median): 34.29%
[9]
  % T/C (mean), Body Weight Day 21: 96.87%
  % T/C (median), Body Weight Day 21: 96.87%
[10]
  % T/C (mean), Body Weight Day 21: 96.25%
  % T/C (median), Body Weight Day 21: 96.25%
mouse, in vivo, iv, 3.13 mg/kg
  Relative to initial body wt., %: 0.00%
mouse, in vivo, iv, 6.25 mg/kg
  Body Weight (g) Day 14 (individual animals): 22 g
  Body Weight (g) Day 14, Mean: 22.00 g
  Body Weight (g) Day 14, Median: 22.00 g
  Body Weight (g) Day 21: 22 g
  Body Weight (g) Day 21 Mean: 22.14 g
  Body Weight (g) Day 21 Median: 22.14 g
mouse, in vivo, iv, 25 mg/kg
  Body Weight (g) Day 14 (individual animals): 22 g
  Body Weight (g) Day 14, Mean: 22.43 g
  Body Weight (g) Day 14, Median: 22.43 g
  Body Weight (g) Day 21: 22 g
  Body Weight (g) Day 21 Mean: 22.00 g
  Body Weight (g) Day 21 Median: 22.00 g
Individual animals, Day 16, 3.13 mg/kg QDx1 IV
  Xenograft AMO-1 (DSMZ) (mm³) Day 16: 195 mm³ and 171 mm³ and 227 mm³ and 217 mm³ and 219 mm³ and 212 mm³ and 203 mm³ and 196 mm³
Individual animals, Day 16, 6.25 mg/kg QDx1 IV
  Xenograft AMO-1 (DSMZ) (mm³) Day 16: 158 mm³ and 174 mm³ (2×) and 187 mm³ and 182 mm³ and 167 mm³ and 173 mm³ and 160 mm³
Individual animals, Day 19, 3.13 mg/kg QDx1 IV
  Xenograft AMO-1 (DSMZ) (mm³) Day 19: 210 mm³ and 196 mm³ and 181 mm³ and 173 mm³ and 128 mm³ and 213 mm³ and 209 mm³ and 227 mm³
Individual animals, Day 19, 6.25 mg/kg QDx1 IV
  Xenograft AMO-1 (DSMZ) (mm³) Day 19: 142 mm³ and 122 mm³ and 113 mm³ and 105 mm³ and 128 mm³ and 144 mm³ and 162 mm³ and 152 mm³
